From patent publication US20070191337A1, “Annellated carbamyl-aza-heterocyclic compounds, a focused library, pharmaceutical compositions, and methods of preparing the same” (priority 2004, published 2007) come the findings set out here.

What all share (test): Anticancer activity: growth inhibition in tissue culture (Alamar Blue)
Common to all, as to assay type: cell-based
In general terms: Resazurin is reduced to fluorescent resorufin, in cell work by metabolically active cells.

In test [1] the test system is DLD-1 (adenocarcinoma of the rectum). As to conditions: DLD-1 cells, 30 μM, 48 hours, Alamar Blue fluorescence; result in words. How it is done: (§1) A focused library was compiled to include compounds of general formula 1, as shown in Tables 1.01 to 1.23, and tested for anticancer activity. Anticancer activity of the compounds was measured by their capacity to kill cancerous cells in a tissue culture. Three cell lines representing three types of cancerous tumors were chosen, in particular: DLD-1 (adenocarcinoma of the rectum), DU-145 ([…]), and T-47D (tumor of the mammary gland). All the cell cultures were received from the American Tissue Culture Collection (ATCC). The efficiency of the compounds was assessed by measuring the number of […] cells following treatment with the test compounds over 48 hours. The cells were seeded at a concentration of 5*10^3 cells per hole of a standard 96-hole plate and left overnight for cells to be attached to the hole bottom. Whereupon the test compounds were added to the cells at an ultimate concentration of 30 μM, and the plates were left for 48 hours in an incubator at 37° C. maintaining the 5% CO2/95% air atmosphere at 100% humidity. At the end of the experiment, the medium with the compounds was sucked out of all the holes, and the holes were rinsed twice with physiological solution. […] of Alamar Blue solution was added to each hole, and fluorescence (λex=531 nm, λem=589 nm) was measured immediately after addition and 2 hours thereafter. The rate of fluorescence growth was proportional to the number of cells that survived incubation with the test compounds [John O'Brien, Ian Wilson, Terry Orton and Francois Pognan, “Investigation of the Alamar Blue (resazurin) Fluorescent Dye for the Assessment of Mammalian Cell Cytotoxicity.” Eur. J. Biochem. 2000,b 267, 5421-5426]. The proportion of cell growth suppression was found from the following equation: % of growth inhibition=((ΔΦk−ΔΦi)/ΔΦk)*100%, wherein: ΔΦ means increase in fluorescence over […] following addition of the Alamar Blue solution, and the subscripts […] and i mean, respectively, control cells (grown without any compounds added) and experimental cells (grown in the presence of test compounds).

Test [2] concerns DU-145 (carcinoma of the brain). The note with it: DU-145 cells, 30 μM, 48 hours, Alamar Blue fluorescence; result in words. As to the method:
as §1

Test [3] concerns T-47D (tumor of the mammary gland). The note with it: T-47D cells, 30 μM, 48 hours, Alamar Blue fluorescence; result in words. How it is done:
as §1

As for `CCc1ccc(-c2cc3n(n2)CC(C)(C(=O)NC2CCCCC2)N(CCN2CCCC2)C3=O)cc1` (stereo not drawn) [1.5(3){50}, cyclohexylamide of 6-methyl-4-oxo-5-(2-pyrrolidin-1-yl-ethyl)-2-(4-ethylphenyl)-4,5,6,7-tetrahydropyrazolo[1,5-a]pyrazine-6-carbonic acid], the “suppression of tumor cell growth (% of growth inhibition)” value in test [1], in test [2] and in test [3] was “equally good at suppressing cell growth in all three cancer tumors” throughout.
